Bounds are passed on as bounds.

A short description of assay [1]: Inhibition of DNAPK in human HCT-116 cells preincubated for 1 hr followed by UV radiation and measured after 1 hr by Bradford assay based immunoblotting analysis. Type of assay: cell-based.
Assay [2] deals with T1, Serine/threonine-protein kinase mTOR (Homo sapiens, UniProt P42345).
Assay [3] deals with Splenocyte. The experiment in a line: Immunosuppressive activity in BDF1 mouse Splenocyte assessed as inhibition of concanavalin A induced T-cell proliferation incubated for 72 hrs by [3H]-thymidine incorporation based liquid scintillation counter analysis. Format: functional.
In assay [4] the test system is Cortical neurone. The assay can be described thus: Neuroprotective activity in rat Primary cortical neuron assessed as increase in neuronal survival by measuring neurofilament incubated for 72 hrs by ELISA. Format: functional, cell-based.
Assay [5] has as its system Cortical neurone. The experiment in a line: Neuroprotective activity in rat Primary cortical neuron assessed as increase in neurite outgrowth incubated for 72 hrs by cellomics array-scan assay. Format: functional, cell-based.
The target in assay [6] is mTORC2 (Homo sapiens, UniProt P42345). The experiment in a line: Inhibition of mTORC2 in human LN-229 cells assessed as decrease in phosphorylation of AKT at Ser473 level incubated for 24 hrs by immunoblot assay. Type of assay: cell-based.
Assay [7] has as its target T1, Serine/threonine-protein kinase mTOR. The experiment in a line: Binding affinity to mTOR (unknown origin) assessed as dissociation constant by measuring pKd.
Assay [8] shares this target. The experiment in a line: Inhibition of mTOR (unknown origin) assessed as inhibition constant using GFP-4EBP1 as substrate by Lanthascreen based time resolved fluorescence based assay.
For assay [9], the target named is Phosphatidylinositol 4,5-bisphosphate 3-kinase catalytic subunit alpha isoform (Homo sapiens, UniProt P42336). The assay can be described thus: Inhibition of PIK3alpha (unknown origin) expressed in baculovirus assessed as inhibition constant using PIP2 as substrate in presence of [gamma-32P]ATP incubated for 30 mins by scintillation proximity assay.
Assay [10] deals with Serine/threonine-protein kinase mTOR (Rattus norvegicus, UniProt P42346). The experiment in a line: Inhibition of mTOR in rat brain by […] immunoblot assay. Format: tissue-based.

Chain of Phosphatidylinositol 4,5-bisphosphate 3-kinase catalytic subunit alpha isoform (P42336 whole entry, canonical isoform): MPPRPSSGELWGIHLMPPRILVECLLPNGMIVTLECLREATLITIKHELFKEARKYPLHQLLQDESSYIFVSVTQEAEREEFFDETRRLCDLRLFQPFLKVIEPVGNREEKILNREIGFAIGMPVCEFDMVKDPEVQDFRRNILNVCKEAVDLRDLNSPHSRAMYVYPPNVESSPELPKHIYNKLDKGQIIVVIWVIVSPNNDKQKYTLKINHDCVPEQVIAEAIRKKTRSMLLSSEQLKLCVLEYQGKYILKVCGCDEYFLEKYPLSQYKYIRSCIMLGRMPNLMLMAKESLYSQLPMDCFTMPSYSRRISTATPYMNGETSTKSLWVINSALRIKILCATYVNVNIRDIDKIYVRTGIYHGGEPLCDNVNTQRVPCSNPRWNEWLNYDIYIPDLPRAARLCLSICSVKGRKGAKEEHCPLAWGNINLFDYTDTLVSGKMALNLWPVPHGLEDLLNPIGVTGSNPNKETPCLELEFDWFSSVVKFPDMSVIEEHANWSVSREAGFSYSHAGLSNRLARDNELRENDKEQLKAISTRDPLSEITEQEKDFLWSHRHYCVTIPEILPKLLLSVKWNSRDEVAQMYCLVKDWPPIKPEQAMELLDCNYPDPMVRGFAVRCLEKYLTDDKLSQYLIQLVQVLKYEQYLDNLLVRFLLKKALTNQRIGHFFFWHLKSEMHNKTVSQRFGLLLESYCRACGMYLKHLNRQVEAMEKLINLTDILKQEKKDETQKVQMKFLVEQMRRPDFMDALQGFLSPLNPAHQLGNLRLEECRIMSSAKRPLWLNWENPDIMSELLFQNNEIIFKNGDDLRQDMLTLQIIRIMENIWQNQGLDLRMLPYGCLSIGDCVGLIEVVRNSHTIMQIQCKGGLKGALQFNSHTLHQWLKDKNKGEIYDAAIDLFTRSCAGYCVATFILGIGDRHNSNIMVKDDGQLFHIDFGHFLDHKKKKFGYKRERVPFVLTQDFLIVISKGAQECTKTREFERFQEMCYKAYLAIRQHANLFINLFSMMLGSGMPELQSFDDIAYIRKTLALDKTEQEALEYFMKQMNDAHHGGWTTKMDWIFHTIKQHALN

As to `Nc1ccc(-c2ccc3ncc4ccc(=O)n(-c5cccc(C(F)(F)F)c5)c4c3c2)cn1`, the 50% inhibitory concentration (IC50) in [1] was < 10 nM.

In assay [2], `COc1cccc2cc(-c3nc(C4CCC(C(=O)O)CC4)n4ncnc(N)c34)[nH]c12` (stereo unspecified) registered an IC50 of 4 nM.

For the molecule `CO[C@@H]1C[C@H](C[C@@H](C)[C@@H]2CC(=O)[C@H](C)/C=C(\C)[C@@H](O)[C@@H](OC)C(=O)[C@H](C)C[C@H](C)/C=C/C=C/C=C(\C)[C@@H](OCc3ccccc3)C[C@@H]3CC[C@@H](C)[C@@](O)(O3)C(=O)C(=O)N3CCCC[C@H]3C(=O)O2)CC[C@H]1O`, the IC50 in [3] was 6 nM.

For the molecule `CO[C@@H]1C[C@H](C[C@@H](C)[C@@H]2CC(=O)[C@H](C)/C=C(\C)[C@@H](O)[C@@H](OC)C(=O)[C@H](C)C[C@H](C)/C=C/C=C/C=C(\C)CC[C@@H]3CC[C@@H](C)[C@@](O)(O3)C(=O)C(=O)N3CCCC[C@H]3C(=O)O2)CC[C@H]1O`, the IC50 in assay [3] is 2 nM.

In the case of `CO[C@H]1C[C@@H]2CC[C@@H](C)[C@@](O)(O2)C(=O)C(=O)N2CCCC[C@H]2C(=O)O[C@H]([C@H](C)C[C@@H]2CC[C@@H](O)[C@H](OC)C2)CC(=O)[C@H](C)/C=C(\C)[C@@H](O)[C@@H](OC)C(=O)[C@H](C)C[C@H](C)C2C=CC(/C=C/1C)ON2c1ccccc1`, the EC50 in [4] came out at 700 nM; in [5], 420 nM.

For the molecule `CC1CN(C(=O)Nc2ccc(Cl)c(Cl)c2)/C(=N/c2cccc(F)c2)S1` (stereo unspecified), the IC50 in assay [6] was determined as 310 nM.

As to `CNc1ncnn2c(C3CCC(C(=O)O)CC3)nc(-c3cc4cccc(OC5CCOC5)c4[nH]3)c12` (stereo unspecified), the Kd in assay [7] is 204 nM.

As to `O=C(O[C@@H]1Cc2c(O)cc(O)cc2O[C@@H]1c1cc(O)c(O)c(O)c1)c1cc(O)c(O)c(O)c1` [EPIGALOCATECHIN GALLATE], the Ki is 320 nM in assay [8] and 380 nM in assay [9].

As to `COC[C@H]1OC(=O)c2coc3c2[C@@]1(C)C1=C(C3=O)[C@@H]2CCC(=O)[C@@]2(C)C[C@H]1OC(C)=O` [WORTMANNIN], in assay [10], it took 300 nM to reach half-maximal inhibition (IC50).
